Test results: patent US20250314644A1, “METHODS COMPRISING DETECTION OF ADP-HEPTOSE” (CHILDREN'S HOSPITAL MEDICAL CENTER, priority 2023, published 2025)

How the values were obtained:
Assay type in all cases: in vivo, mouse
[1] = system: Dnmt3a^−/−; Alpk1^−/− HSCs; assay: ADP-heptose treatment of low-dose irradiated chimeric mice: donor HSC number, EdU proliferation, secondary transplant
Source text: (§1) To model pre-leukemic clonal hematopoiesis, chimeric mice were generated as aas follows. Briefly, mixture of 1×10^6 whole bone marrow cells (WBM) were obtained from Poly (I:C) treated wild-type (Dnmt3a^+/+; MxCre^+, called Dnmt3a^WT) or mutant mice (Dnmt3a^f/f; MxCre^+, called Dnmt3a^KO) or double mutant mice (Dnmt3a^f/f; MxCre^+; Alpk1^KO, called Dnmt3a^KO; Alpk1^KO) (CD45.2^+), and transplanted into low-dose (2.5 Gy) irradiated recipient mice (CD45.1^+; 6-10 weeks of age). 8 weeks post-transplant, chimeric mice were treated with either water (H2O) or DSS (2.5%) for 1 week, and allowed to recover for 1 more week on water after which flow cytometry was performed on BM. In separate experiment, chimeric mice were pre-treated with broad spectrum antibiotics (ABX) for 4 weeks, and then subjected to DSS for 1 week after which flow cytometry performed on BM. In a separate set of experiment, chimeric mice were treated with either H2O or ADP-heptose (0.5 mg/kg) for 2 weeks, and flow cytometry performed after 2 more weeks on BM. In all the experiments, secondary transplantation was performed by purifying donor HSCs (CD45.2^+Lin^−Sca-1^+c-Kit^+Flk2^−CD150^+CD48^−) and transplanting 100 HSCs with 200,000 helper WBM cells (CD45.1+) into lethally irradiated (8 Gy) recipient mice (CD45.1^+), and donor chimerism in PB examined by flow cytometry.

[2] = system: WT HSCs; assay: ADP-heptose treatment of low-dose irradiated chimeric mice: donor HSC number and engraftment; settings: ADP-heptose 0.5 mg/kg for 2 weeks
Source text: as §1

[3] = system: Dnmt3a^−/− HSCs; assay: ADP-heptose treatment of low-dose irradiated chimeric mice: donor HSC number in BM, EdU proliferation, secondary transplant
Source text: as §1

Nc1ncnc2c1ncn2[C@@H]1O[C@H](COP(=O)(O)OP(=O)(O)O[C@@H]2O[C@H]([C@H](O)CO)[C@@H](O)[C@H](O)[C@@H]2O)[C@@H](O)[C@H]1O [ADP-heptose, ADP-D-glycero-β-D-manno-heptose]
proliferation of HSCs in vivo (EdU) [1]: completely abrogated
expansion and self-renewal in recipient mice ([1]; ADP-heptose administration): unable to expand nor self-renew
WT HSCs numbers and engraftment in recipient mice [2]: did not affect
expansion of Dnmt3a^−/− HSCs in BM ([3]; ADP-heptose 0.5 mg/kg for 2 weeks): rapid and significant expansion
proliferation of HSCs in vivo (EdU) ([3]; Dnmt3a^−/− HSCs, within 2 weeks): significant proliferation
self-renewal in secondary recipient mice ([3]; secondary transplant of donor HSCs): sustained self-renewal
